From US11773093B1, “N-(pyrimido[2,3-b]indol-7-yl)acetamide compounds as antibacterial agents” (KING FAISAL UNIVERSITY, priority 2023, dated 2023)
In brackets after ≈: the same amount, converted by molar mass. Like-named read-outs stand apart in the source and are kept apart here.

How the values were obtained:
[1] = tested on: Bacillus subtilis MTCC 441; assay: In vitro antibacterial activity (MIC, CLSI M07-A10 dilution); format: cell-based; conditions: MTCC441
[2] = tested on: Enterococcus faecium ATCC 35667; assay: as above; format: cell-based; conditions: ATCC35667
[3] = tested on: Enterococcus faecium ATCC 51559 (VRE resistant); assay: as above; format: cell-based
[4] = tested on: Klebsiella pneumonia MTCC 618; assay: as above; format: cell-based; conditions: Klebsiella pneumoniae, MTCC618
[5] = tested on: Pseudomonas aeruginosa MTCC 741; assay: as above; format: cell-based; conditions: MTCC741
[6] = tested on: Staphylococcus aureus ATCC 29213; assay: as above; format: cell-based; conditions: ATCC29213
[7] = tested on: Staphylococcus aureus ATCC BAA-1556 (MERSA resistant); assay: as above; format: cell-based; conditions: ATCCBAA1556
[8] = tested on: Staphylococcus epidermidis; assay: as above; format: cell-based
[9] = tested on: Escherichia coli MTCC 443; assay: as above; format: cell-based; conditions: MTCC443
[10] = tested on: Mycobacterium tuberculosis H37Rv strain; assay: Anti-tubercular properties, alamar blue microplate MIC; format: cell-based; conditions: 168 h, M. tuberculosis H37Rv, seven days incubation at 37° C., read-out: anti-mycobacterial activity (MIC)
DNA gyrase from E. coli = target: T1, DNA gyrase from E. coli (Escherichia coli, UniProt P0AES4+P0AES6); assay: Inhibitory activities on E. coli DNA Gyrase (Inspiralis assay); format: biochemical
T1 construct: purchased Inspiralis
Description: Inhibitory potencies were investigated utilizing the Inspiralis assay on streptavidin-coated 96-well microtiter plates. First, the plates were rehydrated with buffer (20 mM Tris-HCl with pH 7.6, 0.01% w/v BSA, 0.05% v/v Tween 20, 137 mM NaCl) and the biotinylated oligonucleotide was then immobilized. After washing off the unbound oligonucleotide, the enzyme test was performed. The reaction volume of 30 μL in buffer (35 mM Tris×HCl with pH 7.5, 4 mM MgCl2, 24 mM KCl, 2 mM DTT, 1.8 mM spermidine, 1 mM ATP, 6.5% w/v glycerol, 0.1 mg/mL albumin) contained 1.5 U of DNA gyrase from E. coli, 0.75 μg of relaxed pNO1 plasmid, and 3 μL solution of the inhibitor in 10% DMSO and 0.008% Tween 20. Reaction solutions were incubated at 37° C. for 30 min. After that, the TF buffer (50 mM NaOAc with pH 5.0, 50 mM NaCl and 50 mM MgCl2) was added to terminate the enzymatic reaction. After additional incubation for 30 min at rt, during which biotinoligonucleotide-plasmid triplex was formed, the unbound plasmid was washed off using TF buffer and SybrGOLD in T10 buffer (10 mM Tris HCl with pH 8.0 and 1 mM EDTA) was added. The fluorescence was measured with a microplate reader (BioTek Synergy H4, excitation: 485 nm, emission: 535 nm). Initial screening was done at 100 or 10 μM concentration of inhibitors. […] GraphPad Prism software was used to calculate the IC50 values. […]

T1 sequence (P0AES4 whole entry, one chain of several): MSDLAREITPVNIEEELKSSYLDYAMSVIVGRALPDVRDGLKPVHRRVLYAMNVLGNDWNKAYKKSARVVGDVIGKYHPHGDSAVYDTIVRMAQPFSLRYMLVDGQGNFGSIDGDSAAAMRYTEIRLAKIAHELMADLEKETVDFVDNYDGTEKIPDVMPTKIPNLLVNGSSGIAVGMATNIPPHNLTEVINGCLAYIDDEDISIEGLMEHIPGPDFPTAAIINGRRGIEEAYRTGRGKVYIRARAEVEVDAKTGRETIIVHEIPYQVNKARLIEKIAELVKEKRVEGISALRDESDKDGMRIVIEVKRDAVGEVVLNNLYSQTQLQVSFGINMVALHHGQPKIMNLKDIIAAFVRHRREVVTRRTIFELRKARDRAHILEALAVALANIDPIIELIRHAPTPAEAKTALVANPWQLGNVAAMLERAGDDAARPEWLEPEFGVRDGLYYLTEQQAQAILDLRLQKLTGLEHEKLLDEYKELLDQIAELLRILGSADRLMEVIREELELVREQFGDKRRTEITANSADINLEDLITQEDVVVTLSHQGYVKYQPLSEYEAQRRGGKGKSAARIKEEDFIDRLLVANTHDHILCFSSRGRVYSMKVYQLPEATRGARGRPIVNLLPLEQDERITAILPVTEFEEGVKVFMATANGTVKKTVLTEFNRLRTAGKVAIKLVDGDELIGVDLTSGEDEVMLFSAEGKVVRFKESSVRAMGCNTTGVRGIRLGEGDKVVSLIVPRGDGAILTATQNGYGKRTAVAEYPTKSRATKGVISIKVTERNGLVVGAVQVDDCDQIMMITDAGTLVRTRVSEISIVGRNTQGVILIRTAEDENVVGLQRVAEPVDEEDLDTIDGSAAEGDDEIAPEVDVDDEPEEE

| Compound | MIC ([1]; Bacillus subtilis) [µg/mL] | MIC ([2]; Enterococcus faecium) [µg/mL] | MIC ([3]; Enterococcus faecium) [µg/mL] | MIC [4] [µg/mL] | MIC ([5]; Pseudomonas aeruginosa) [µg/mL] | MIC [6] [µg/mL] | MIC [7] [µg/mL] | MIC [8] [µg/mL] | MIC ([1]; Bacillus subtilis MTCC 441, read-out: MIC) [µg/mL] | MIC ([2]; Enterococcus faecium ATCC 35667, read-out: MIC) [µg/mL] | MIC ([3]; Enterococcus faecium ATCC 51559 (VRE resistant), read-out: MIC) [µg/mL] | MIC ([4]; Klebsiella pneumonia MTCC 618, read-out: MIC) [µg/mL] | MIC [9] [µg/mL] | MIC ([5]; Pseudomonas aeruginosa MTCC 741, read-out: MIC) [µg/mL] | MIC [10] [µg/mL] | IC50 (DNA gyrase from E. coli) [nM] |
| --- | --- | --- | --- | --- | --- | --- | --- | --- | --- | --- | --- | --- | --- | --- | --- | --- |
| CN[C@H](CC(C)C)C(=O)N[C@H]1C(=O)N[C@@H](CC(N)=O)C(=O)N[C@H]2C(=O)N[C@H]3C(=O)N[C@H](C(=O)N[C@H](C(=O)O)c4cc(O)cc(O)c4-c4cc3ccc4O)[C@H](O)c3ccc(c(Cl)c3)Oc3cc2cc(c3O[C@@H]2O[C@H](CO)[C@@H](O)[C@H](O)[C@H]2O[C@H]2C[C@](C)(N)[C@H](O)[C@H](C)O2)Oc2ccc(cc2Cl)[C@H]1O [Vancomycin, reference compound] | 0.5 (≈ 0.345 µM) | 0.5 (≈ 0.345 µM) | > 128 | > 128 | > 128 |  |  |  |  |  |  |  |  |  |  |  |
| CC(=O)Nc1ccc2c(c1)[nH]c1nccc(Nc3ccc(C(=O)O)cc3)c12 [Example 8, 4-((7-acetamido-9H-pyrido[2,3-b]indol-4-yl)amino)benzoic acid] |  |  |  |  |  | 0.25 (≈ 0.694 µM) | 4 (≈ 11.1 µM) | 0.25 (≈ 0.694 µM) | 0.25 (≈ 0.694 µM) | 0.5 (≈ 1.39 µM) | 1 (≈ 2.77 µM) | 1 (≈ 2.77 µM) | 1 (≈ 2.77 µM) | 0.25 (≈ 0.694 µM) | 8 (≈ 22.2 µM) | 125 |
